Assay results as given in patent US8889672B2, “Compounds, formulations, and methods of protein kinase C inhibition” (The Regents of The University of Michigan, priority 2011, dated 2014).
Like-named read-outs stand apart in the source and are kept apart here.

How the values were obtained:
aPKCζ [1] = biological target: T1, aPKCζ (Homo sapiens (Human), UniProt Q05513); assay: ADP Quest assay, IC50 against aPKCζ; settings: 500 ng/ml aPKCζ, 10 μM CREBtide, 10 μM ATP
PKC isoforms = assay: PKC class specificity from radio-labeled kinase assay; assay type: biochemical, human
Text: (§1) PKCldiMeO and PKCζl-diCl were screened against other PKC isoforms to determine class specificity using a radio-labeled kinase assay at the Kmapp for ATP. […] PKCζl-diCl was 5-10 fold more specific towards the atypical PKC isoforms compared to the classical PKCs (α, β) and over 10-20 fold more specific compared to the novel class (δ,ε).

BREC monolayer [2] = assay: VEGF-induced retinal endothelial permeability assay (70 kDa RITC-Dextran); assay type: cell-based, bovine; settings: pretreatment 30 min, 30 or 100 nM PKCζl-diCl, 30 or 300 nM PKCl-diMeO; 50 ng/ml VEGF
Protocol: (§2) Primary bovine retinal endothelial cells (BREC) were isolated from fresh bovine eye tissue. Human retinal endothelial cells (HREC) were from Cell Systems (Krikland, Wash., USA). Cells were grown in MCDB-131 complete media (Sigma-Aldrich, Mo., USA) containing 10% fetal bovine serum, 10 ng/ml epidermal growth factor, 200 μg/ml Endogro (Vec Technologies, Rensselaer, N.Y., USA), 90 μg/ml heparin, antibiotics and antimycotics. For experimentation, cells were grown to confluence and serum starved for 24 hours with 100 nM hydrocortisone and treated with VEGF at 50 ng/ml where indicated. All experiments were performed with cells at passage 5-8.
(§3) RECs were plated onto 0.4 μm Transwell filters (Corning Costar, Acton, Mass., USA) and grown to confluence. Following treatments, 70 kDa rhodamine β isothiocyanate-dextran (RITC-Dextran) was added to the apical chamber and samples were collected from the basolateral chamber at 30 minute intervals for 4 hours. The rate of flux of the substrate, Po, was calculated over the 4 hour time course from the following formula. Po=[FL/Δt)VA]/(FAA) where Po is in centimeters per second; FL is basolateral fluorescence; FA is apical fluorescence; Δt is change in time; A is the surface area of the filter (in square centimeters); and VA is the volume of the basolateral chamber (in cubic centimeters). […]

[3] = test system: human retinal endothelial primary cells (HREC) monolayers; assay: Basal permeability of HREC monolayers; assay type: cell-based
Protocol: as §2, §3

[4] = test system: occludin and ZO-1 border staining in BREC; assay: Tight junction protein localization after VEGF (immunocytochemistry, confocal); assay type: cell-based, bovine; settings: 100 nM, 30 min before 50 ng/ml VEGF for 60 min
Protocol: VEGF treatment of retinal endothelial cells and diabetes leads to a breakdown of the tight junction complex and internalization of tight junction proteins occludin and ZO-1. The ability of the phenyl-thiophene derivatives to prevent the VEGF-induced reduction in tight junction border staining was examined. BREC were grown to confluence on coverslips and pretreated with 100 nM PKCζ-diCl for 30 minutes prior to treatment with 50 ng/ml VEGF for 60 minutes. Cells were fixed and stained with antibodies for ZO-1 or occludin and were visualized by confocal microscopy. VEGF decreased the border staining and continuity of ZO-1 and occludin labeling at the cell border. […] This effect on the tight junction correlated with the observed attenuation of VEGF-induced permeability.

[5] = test system: retinal vasculature tight junction complex (occludin); assay: Occludin immuno-labeling of retinal flat mounts after intra-vitreal VEGF; settings: intra-vitreal co-injection with VEGF
aPKCζ [6] = biological target: T1, aPKCζ; assay: Kinase-Glo end-point assay, IC50 against aPKCζ; settings: 125 ng/ml aPKCζ, 25 μM CREBtide, 0.1 μM ATP
PKCα = PKCα (Homo sapiens (Human), UniProt P17252); assay: Radio-labeled kinase assay at the Kmapp for ATP; assay type: biochemical
Text: as §1

PKCβ = PKCβ (Homo sapiens (Human), UniProt P05771); assay: Radio-labeled kinase assay at the Kmapp for ATP; assay type: biochemical
Text: as §1

PKCδ = PKCδ (Homo sapiens (Human), UniProt Q05655); assay: Radio-labeled kinase assay at the Kmapp for ATP; assay type: biochemical
Text: as §1

PKCε = PKCε (Homo sapiens (Human), UniProt Q02156); assay: Radio-labeled kinase assay at the Kmapp for ATP; assay type: biochemical
Text: as §1

[7] = test system: 20 AGC super-family kinases; assay: Screen of 20 AGC super-family kinases at 100 μM; assay type: biochemical, human
[8] = test system: cPKC / Erk phosphorylation in endothelial cells; assay: cPKC activity in cell culture (Erk phosphorylation, immunoblot); assay type: cell-based
Protocol: Cells were harvested in extraction buffer containing 100 mM NaCl, 1% Triton X-100, 0.5% Sodium Deoxycholate, 0.2% SDS, 2 mM EDTA, 10 mM HEPES (pH 7.5), 1 mM sodium orthovanadate, 10 mM sodium fluoride, 10 mM sodium pyrophosphate, 1 mM benzamadine, 1 complete protease inhibitor tablet, 10 μM LR-microcystin. Following protein extraction, Western blot utilizing the NuPAGE system (Invitrogen, Carlsbad, Calif., USA) was performed. Protein content was determined using DC protein assay (BioRad, Hercules, Calif., USA) and equal amounts of protein were loaded in 4-12% Bis-Tris gradient gels. Following electrophoresis and transferring to nitrocellulose, membranes were blocked in milk with 5% Tris-buffered saline with 0.1% Tween 20. Membranes were immunoblotted using anti-Flag (Cell Signaling, Danvers, Mass., USA), anti-HA (Cell Signaling, Danvers, Mass., USA), anti-phospho ERK1/2 (Cell Signaling, Danvers, Mass., USA), anti-total ERK1/2 (Cell Signaling, Danvers, Mass., USA), anti-phospho aPKC (Cell Signaling, Danvers, Mass., USA), total PKCζ (Santa Cruz, Santa Cruz, Calif., USA), and anti-actin (Millipore, Billerica, Mass., USA) antibodies. Primary antibodies were detected by horseradish peroxidase-conjugated anti-rabbit and chemiluminescence with ECL Advance (GE Healthcare, Piscataway, N.J., USA) or anti-mouse IgG alkaline phosphatase with ECF (GE Healthcare, Piscataway, N.J., USA).

AKT in endothelial cells = assay: AKT, downstream mediator of PI3K signaling, in endothelial cells; assay type: cell-based
BREC monolayer [9] = assay: TNF/VEGF permeability assay; assay type: cell-based, bovine; settings: 30 min pretreatment, TNFα 1 hour then VEGF 30 min; for EC50: read-out: EC50 for inhibition of TNF/VEGF-induced endothelial permeability
Protocol: BREC were plated onto 0.4 μm Transwell filters (Corning Costar, Acton, Mass., USA) and grown to confluence. Following 30 minutes of pretreatment with candidate compound, cells were subjected to 5 ng/ml TNFα (R&D Systems, Minneapolis, Minn., USA) for one hour, then 50 ng/ml VEGF (R&D Systems) for 30 minutes. Following treatments, 70 kDa Rhodamine β isothiocyanate-dextran (RITC-Dextran) was added to the apical chamber, and samples were collected from the basolateral chamber at 30 minute intervals for four hours. The rate of flux of the substrate, Po, was calculated over the four-hour time course from the following formula: Po=[FL/delta(t))VA]/(FAA)
where Po is in centimeters per second; FL is basolateral fluorescence; FA is apical fluorescence; delta(t) is change in time; A is the surface area of the filter (in square centimeters); and VA is the volume of the basolateral chamber (in cubic centimeters).

HEK293pNF-kBluc cells = assay: TNF-induced NF-kB activation assay (luciferase reporter); assay type: cell-based, human; settings: 3 h pre-treatment, 5 ng/mL TNF for 5 h
Protocol: HEK293pNF-kBluc cells (Panomics, Fremont, Calif., USA) were cultured according to the manufacturer's protocol. Cells were seeded onto 96-well plates in phenol red-free DMEM containing high glucose (Sigma) for 24 hours prior to assay. Cells were exposed to a candidate compound for three hours. Following treatment, cells were stimulated with 5 ng/ml TNF (R&D Systems) for five hours. Cells were then lysed with Bright-Glo™ luciferase reagent (Promega, Madison, Wis., USA) and luminescent values were obtained using a GloMax® instrument using standard protocol for Bright-Glo™ luciferase reagent. Values were background corrected and normalized to TNF treatment alone and represented as % NF-kB activity.
Human embryonic kidney cells containing a luciferase reporter gene for NF-kB activation (HEK293pNF-kBluc) were treated with candidate compounds described herein for three hours. The cells were then stimulated with TNF for five hours and the inhibition of NF-kB was evaluated. After pre-treatment with 100 nM of aPKC inhibitor, NF-kB activity was reduced by as much as 80%. […] Other compounds tested inhibited TNF-induced NF-kB activity, but to a lesser degree.

[10] = Solubility in aqueous environments; assay type: physicochemical
BREC = assay: LIVE/Dead cell viability; settings: 24 and 48 hours; up to 300 nM

T1 sequence (Q05513 whole entry, canonical isoform): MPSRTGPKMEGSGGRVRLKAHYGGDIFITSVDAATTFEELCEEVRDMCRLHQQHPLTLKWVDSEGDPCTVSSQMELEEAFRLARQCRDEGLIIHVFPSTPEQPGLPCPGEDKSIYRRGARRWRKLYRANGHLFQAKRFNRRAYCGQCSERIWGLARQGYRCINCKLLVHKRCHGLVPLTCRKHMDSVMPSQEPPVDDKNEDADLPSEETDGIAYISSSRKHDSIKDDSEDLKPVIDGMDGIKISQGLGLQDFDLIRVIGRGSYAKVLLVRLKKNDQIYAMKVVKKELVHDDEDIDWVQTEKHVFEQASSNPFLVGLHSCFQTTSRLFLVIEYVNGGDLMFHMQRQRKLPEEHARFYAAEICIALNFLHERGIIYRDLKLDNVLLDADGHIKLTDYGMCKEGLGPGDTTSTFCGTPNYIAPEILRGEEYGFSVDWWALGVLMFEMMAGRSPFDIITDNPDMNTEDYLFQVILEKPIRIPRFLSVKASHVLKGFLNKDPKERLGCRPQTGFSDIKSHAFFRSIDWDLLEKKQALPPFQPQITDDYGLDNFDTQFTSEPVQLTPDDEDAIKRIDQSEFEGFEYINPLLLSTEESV
Chain of PKCδ (Q05655 whole entry): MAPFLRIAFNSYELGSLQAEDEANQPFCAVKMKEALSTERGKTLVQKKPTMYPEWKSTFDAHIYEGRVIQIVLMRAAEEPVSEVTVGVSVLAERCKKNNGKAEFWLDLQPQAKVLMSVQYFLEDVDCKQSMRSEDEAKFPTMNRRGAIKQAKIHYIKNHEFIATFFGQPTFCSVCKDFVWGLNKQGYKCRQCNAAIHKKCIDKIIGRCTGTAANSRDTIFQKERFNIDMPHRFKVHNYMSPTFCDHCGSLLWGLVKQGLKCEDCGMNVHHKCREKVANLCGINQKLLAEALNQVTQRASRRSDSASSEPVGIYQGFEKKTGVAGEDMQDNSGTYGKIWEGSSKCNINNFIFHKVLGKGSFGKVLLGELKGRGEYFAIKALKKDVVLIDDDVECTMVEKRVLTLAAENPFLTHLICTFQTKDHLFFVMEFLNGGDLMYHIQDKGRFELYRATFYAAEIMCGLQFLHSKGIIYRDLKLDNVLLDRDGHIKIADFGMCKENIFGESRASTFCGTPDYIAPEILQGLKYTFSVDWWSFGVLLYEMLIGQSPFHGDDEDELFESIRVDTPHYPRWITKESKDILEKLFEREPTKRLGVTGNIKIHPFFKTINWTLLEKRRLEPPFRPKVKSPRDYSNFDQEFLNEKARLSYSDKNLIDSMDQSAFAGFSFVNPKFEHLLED
Chain of PKCβ (P05771 whole entry): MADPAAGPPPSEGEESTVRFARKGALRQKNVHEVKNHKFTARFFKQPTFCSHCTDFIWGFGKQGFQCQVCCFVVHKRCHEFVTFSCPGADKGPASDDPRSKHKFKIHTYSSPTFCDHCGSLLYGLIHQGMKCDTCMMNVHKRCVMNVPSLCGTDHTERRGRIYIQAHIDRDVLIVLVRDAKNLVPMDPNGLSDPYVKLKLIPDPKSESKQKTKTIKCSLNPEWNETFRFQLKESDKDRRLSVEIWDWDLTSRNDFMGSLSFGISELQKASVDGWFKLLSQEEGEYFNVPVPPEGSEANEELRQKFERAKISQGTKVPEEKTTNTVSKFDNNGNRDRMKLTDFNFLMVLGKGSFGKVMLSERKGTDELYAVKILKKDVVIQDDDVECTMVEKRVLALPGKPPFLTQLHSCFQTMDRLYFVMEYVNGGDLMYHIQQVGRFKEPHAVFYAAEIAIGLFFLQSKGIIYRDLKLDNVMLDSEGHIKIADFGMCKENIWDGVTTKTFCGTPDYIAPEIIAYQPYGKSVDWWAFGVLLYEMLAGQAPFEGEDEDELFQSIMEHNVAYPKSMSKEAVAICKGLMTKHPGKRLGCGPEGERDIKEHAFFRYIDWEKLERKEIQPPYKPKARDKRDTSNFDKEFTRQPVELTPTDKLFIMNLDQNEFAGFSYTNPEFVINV
Chain of PKCε (Q02156 whole entry): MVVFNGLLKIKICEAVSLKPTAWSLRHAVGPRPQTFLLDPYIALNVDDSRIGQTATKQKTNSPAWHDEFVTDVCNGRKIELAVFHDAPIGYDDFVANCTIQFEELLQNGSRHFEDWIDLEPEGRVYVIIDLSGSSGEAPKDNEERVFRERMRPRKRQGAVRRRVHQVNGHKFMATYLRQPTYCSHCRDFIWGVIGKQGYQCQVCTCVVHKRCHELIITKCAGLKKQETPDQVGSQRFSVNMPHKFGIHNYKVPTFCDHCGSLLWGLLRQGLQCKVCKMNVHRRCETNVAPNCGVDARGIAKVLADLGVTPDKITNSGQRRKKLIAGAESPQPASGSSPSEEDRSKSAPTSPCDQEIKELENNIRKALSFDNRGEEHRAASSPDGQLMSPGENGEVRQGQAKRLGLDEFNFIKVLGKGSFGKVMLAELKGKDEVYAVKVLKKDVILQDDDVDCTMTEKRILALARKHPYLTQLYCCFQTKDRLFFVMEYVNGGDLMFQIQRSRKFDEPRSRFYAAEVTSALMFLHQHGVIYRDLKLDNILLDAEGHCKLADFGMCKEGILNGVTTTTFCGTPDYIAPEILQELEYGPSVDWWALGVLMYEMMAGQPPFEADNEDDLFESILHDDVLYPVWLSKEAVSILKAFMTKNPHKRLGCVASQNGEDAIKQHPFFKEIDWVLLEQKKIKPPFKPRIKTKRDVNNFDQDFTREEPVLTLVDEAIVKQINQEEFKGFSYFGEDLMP

Question: With `CCNC(=O)c1c(-c2ccc(OC)c(OC)c2)csc1N` [Compound 194-074-008] as the compound, how does the IC50 (aPKCζ [1]) read?
Answer: 4 µM

Question: What does the source list for `CC(C)OC(=O)c1c(-c2ccc(Cl)c(Cl)c2)csc1N` [PKCζl-diCl, isopropyl 2-amino-4-(3,4-dichlorophenyl)thiophene-3-carboxylate]?
Answer: specificity towards atypical PKC isoforms compared to the classical PKCs (α, β) (PKC isoforms): 5-10 fold; specificity towards atypical PKC isoforms compared to the novel class (δ,ε) (PKC isoforms): 10-20 fold; VEGF-induced permeability (BREC monolayer [2]): dose-dependently blocked; basal permeability of HREC monolayers [3]: reducing permeability was also observed; VEGF-induced redistribution of occludin and ZO-1 [4]: blocked the VEGF-induced redistribution of occludin and ZO-1 proteins; occludin border staining in retinal vessels [5]: occludin border staining was preserved

Question: Which IC50 (aPKCζ [6]) does the source give for `CCOC(=O)c1c(NC(C)=O)sc(C(C)=O)c1-c1ccc(Cl)cc1` [APOGEE B] here?
Answer: 71 µM

Question: For `CCNC(=O)c1c(-c2ccc(Cl)c(Cl)c2)csc1N` [Compound 194-094-009], which IC50 (aPKCζ [1]) is on record?
Answer: 5 µM

Question: For `COc1ccc(-c2csc(N)c2C(=O)OC(C)C)cc1OC` [PKCl-diMeO], which IC50 (PKCα) is on record?
Answer: 282 µM

Question: And the IC50 (PKCβ)?
Answer: 124 µM

Question: And the IC50 (PKCδ)?
Answer: 147 µM

Question: What about the IC50 (PKCε) of the same compound?
Answer: > 100 µM

Question: What about the “specificity towards atypical PKC isoforms compared to the classical PKCs (α, β)” value (PKC isoforms) of the same compound?
Answer: 25-50 fold

Question: And the “specificity towards atypical PKC isoforms compared to the novel class (δ,ε)” value (PKC isoforms)?
Answer: 25 fold

Question: And the “inhibitory activity towards other AGC kinases” value [7]?
Answer: limited inhibitory activity

Question: And the “cPKC activity in cell culture” value [8]?
Answer: did not inhibit cPKC activity

Question: What about the Erk phosphorylation ([8]; endothelial cells) of the same compound?
Answer: unaffected

Question: And the AKT signaling (AKT in endothelial cells)?
Answer: unaffected

Question: What about the VEGF-induced permeability (BREC monolayer [2]) of the same compound?
Answer: dose-dependently blocked

Question: What about the “TNF/VEGF-induction of BREC permeability” value (BREC monolayer [9]) of the same compound?
Answer: significantly reduce

Question: What about the EC50 (BREC monolayer [9]; Bos taurus) of the same compound?
Answer: 0.001 µM

Question: And the EC50 (HEK293pNF-kBluc cells; Homo sapiens)?
Answer: 0.003 µM

Question: What about the “solubility in aqueous environments” value [10] of the same compound?
Answer: improved solubility in aqueous environments

Question: And the BREC viability (BREC)?
Answer: no evidence of cell death

Question: For `COc1cccc(COC(=O)c2c(-c3ccc(C(N)=O)cc3)csc2N)c1` [Compound 317-120-001], which IC50 (aPKCζ [1]) is on record?
Answer: 6 µM

Question: For `CCOC(=O)c1c(-c2ccc(N(C)C)cc2)csc1N` [Compound 317-080-001], which EC50 (HEK293pNF-kBluc cells) is on record?
Answer: 0.001 µM

Question: With `Nc1scc(-c2ccc(Cl)c(Cl)c2)c1C(=O)N1CCOCC1` [Compound 194-094-003] as the compound, how does the IC50 (aPKCζ [1]) read?
Answer: 3 µM

Question: With `CCOC(=O)c1c(-c2ccc(OC)cc2F)csc1N` [Compound 317-054-001] as the compound, how does the EC50 (HEK293pNF-kBluc cells) read?
Answer: 0.01 µM

Question: What about the IC50 (aPKCζ [1]) of the same compound?
Answer: 4 µM

Question: For `CC(C)NC(=O)c1c(-c2ccc(Cl)c(Cl)c2)csc1N` [Compound 194-094-008], which IC50 (aPKCζ [1]) is on record?
Answer: 5 µM

Question: For `COc1ccc(-c2csc(N)c2C(=O)OCc2ccccc2F)cc1OC` [Compound 317-052-001], which IC50 (aPKCζ [1]) is on record?
Answer: 7 µM

Question: With `COc1ccc(-c2csc(N)c2C(=O)N2CCOCC2)cc1OC` [Compound 194-074-005] as the compound, how does the IC50 (aPKCζ [1]) read?
Answer: 4 µM

Question: Which results are given for `COc1cccc(COC(=O)c2c(-c3ccc(OC)c(OC)c3)csc2N)c1` [Compound 317-052-004]?
Answer: EC50 (HEK293pNF-kBluc cells): 0.002 µM; IC50 (aPKCζ [1]): 5 µM

Question: What does the source list for `COc1ccc(-c2csc(N)c2C(=O)OCc2ccccc2)cc1OC` [Compound 252-036-001]?
Answer: EC50 (HEK293pNF-kBluc cells): 0.001 µM; IC50 (aPKCζ [1]): 6 µM

Question: What does the source list for `CCOC(=O)c1c(-c2ccc(N)cc2)csc1N` [Compound 317-094-001]?
Answer: EC50 (HEK293pNF-kBluc cells): 0.001 µM; IC50 (aPKCζ [1]): 2 µM

Question: Which “TNF/VEGF-induction of BREC permeability” value (BREC monolayer [9]) does the source give for `CCOC(=O)c1c(-c2ccc3c(c2)OCO3)csc1N` [Compound 268-020-002] here?
Answer: significantly reduce

Question: And the EC50 (BREC monolayer [9])?
Answer: 0.02 µM

Question: What about the EC50 (HEK293pNF-kBluc cells) of the same compound?
Answer: 0.003 µM

Question: What about the IC50 (aPKCζ [1]) of the same compound?
Answer: 2 µM

Question: For `COc1ccc(-c2csc(N)c2C#N)cc1OC` [Compound 227-076-001], which IC50 (aPKCζ [1]) is on record?
Answer: 7 µM

Question: With `CCOC(=O)c1c(-c2ccc(NC(C)=O)cc2)csc1N` [Compound 317-056-002] as the compound, how does the IC50 (aPKCζ [1]) read?
Answer: 6 µM
